Experimental findings from US20230416330A1, “Optimized GIP Peptide Analogues” (Antag Therapeutics ApS, priority 2019, published 2023) are described below.

One series deals with T1, human GIP receptor (Homo sapiens, UniProt P48546).
T1 construct: host or cells: HEK-293 cells, transient transfection (Lipofectamine 2000), cDNA in pCMV-Script vector
T1 sequence (P48546 22-466): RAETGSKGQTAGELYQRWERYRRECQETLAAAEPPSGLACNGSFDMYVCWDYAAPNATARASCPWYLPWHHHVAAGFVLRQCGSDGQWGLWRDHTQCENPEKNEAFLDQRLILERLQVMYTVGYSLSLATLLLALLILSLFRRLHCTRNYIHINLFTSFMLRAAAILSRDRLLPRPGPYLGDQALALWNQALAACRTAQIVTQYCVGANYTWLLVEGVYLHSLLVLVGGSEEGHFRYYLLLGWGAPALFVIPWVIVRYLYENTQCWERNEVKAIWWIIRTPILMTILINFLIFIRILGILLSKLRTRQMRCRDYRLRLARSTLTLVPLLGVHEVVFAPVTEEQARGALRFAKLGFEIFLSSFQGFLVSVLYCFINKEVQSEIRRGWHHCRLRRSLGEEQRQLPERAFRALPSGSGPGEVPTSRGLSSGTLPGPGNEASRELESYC
The experiment in a line: cAMP assay Alternative 2 (Gaddum assay), antagonist potency pKb. It is filed as cell-based. As to the method: HEK293 cells were cultured in 10% CO2 and 37° C. in Dulbecco's modified Eagle's medium supplemented with 10% fetal bovine serum, 2 mM glutamine, 180 units/ml penicillin, and 45 µg/ml streptomycin. Transient transfection with hGIPR for the CisBio assay from Table 2C was performed by using Lipofectamine 2000.
Antagonist potency (pKb) was estimated in a functional setting. The estimated pKb values were calculated from the shifts of the agonist-concentration-response curves in the presence of a single dose of GIP peptide antagonists using the Gaddum equation: pKb=log(DR-1)-log(B), where DR (EC50′/EC50) is the dose ratio calculated from EC50 of GIP1-42 obtained in the presence and absence (EC50) of antagonist, and B is the antagonist concentration used.
The in vitro functional assessment of compounds towards human GIP receptor was determined in HEK-293 cells transiently expressing the receptor. On the day of the assay, cells were resuspended in HBSS buffer (Gibco, 14025-50) supplemented with […] (Gibco, 15630-106), 0.1% Pluronic F-68 (Gibco, 24040-032) and 0.1% casein (Sigma, C4765), and plated in 384-well plates at a density of 3500 cells/well. The GIP peptide analogues of the present disclosure were diluted in HBSS buffer supplemented with 20 mM HEPES, 0.1% pluronic, 0.1% casein and 500 uM IBMX. […] Increasing dose of agonist (GIP1-42) was subsequently added to cells and incubated for additionally 30 min at 37° C. The intracellular cAMP was quantitatively determined using the CisBio cAMP Dynamic 2 HTRF Assay Kit. The assay is based on a competition between native cAMP produced by cells and cAMP labeled with the dye d2 for binding to a cryptate labeled antibody. The specific signal (i.e. energy transfer signal) is inversely proportional to the concentration of cAMP in the sample.
The cAMP-d2 conjugate and the antibody anti-cAMP-Cryptate, both diluted in lysis buffer provided in the kit, were added to the cells according to the manufacturer's protocol. The resulting competitive assay was incubated for 60 minutes at room temperature, and the signal was detected by using a PerkinElmer Envision® instrument with excitation at 320 nm and emission at 665 nm and 620 nm. The HTRF ratio (emission at 665 nm/620 nm*10,000) is inversely proportional to the amount of cAMP present and is converted to nM cAMP per well using a cAMP standard curve.

The nature of series [1]: Physical stability: fibril formation in Thioflavin T (ThT) assay with agitation. Type of series: physicochemical. The settings on record: 25° C., agitation. Summed up:
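Read-out is continuous ThT fluorescence at 486 nm, with lag time taken where signal reaches 10% between pre- and post-transition baselines. Filtered samples (1, 5, 7.5 or 15 mg/ml; pH 7.4 phosphate buffer or NaOH-adjusted water) were stressed at 25° C. by orbital rotation at 300 rpm with one silica bead per well.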

The nature of series [2]: Solubility by visual inspection of peptide solutions. It is filed as physicochemical. The method in brief:
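Solubility scored by eye: clear, colorless appearance after gentle mixing. Samples prepared at 1, 5, 7.5 or 15 mg/ml in either pH 7.4 water (NaOH-adjusted) or 50 mM sodium phosphate buffer, pH 7.4.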

Where [3] appears, read: Table 2C, Gaddum equation, single antagonist dose, HEK-293 hGIPR, read-out: nM (Kb).

The structures appear in SMILES notation. Read-outs that look alike come from different tables or passages of the source. Starred links: 1 amine or outer side, 2 acyl side, 3 side chain; linkers in the order of their positions; H or OH if unused. Non-standard residues stand in square brackets, D forms with d. Residues, ends and D or L forms follow the SMILES beside them. Groups on a side chain read outwards from the residue. *: point of attachment. C18 diacid = O=C(O)CCCCCCCCCCCCCCCCC(=O)*; C16 diacid = O=C(O)CCCCCCCCCCCCCCC(=O)*; γGlu = O=C(O)[C@H](CCC(=O)[*:2])N[*:1]; Glutaryl = O=C(CCCC(=O)[*:2])[*:1]; AEEA = NCCOCCOCC(=O)O; Aib = CC(C)(N)C(=O)O

With `CC[C@H](C)[C@H](NC(=O)[C@H](CCCCN)NC(=O)[C@H](CCC(=O)O)NC(=O)[C@H](CC(C)C)NC(=O)C(C)(C)NC(=O)[C@@H](NC(=O)[C@H](CO)NC(=O)[C@H](Cc1ccc(O)cc1)NC(=O)[C@H](CCC(=O)O)NC(=O)[C@H](CO)NC(=O)[C@@H](NC(=O)[C@H](Cc1ccccc1)NC(=O)[C@@H](NC(=O)CNC(=O)[C@@H](N)CCC(=O)O)[C@@H](C)O)[C@@H](C)CC)[C@@H](C)CC)C(=O)N[C@@H](CCCCNC(=O)C(C)(C)NC(=O)CCCCCCCCCCCCCCC(=O)O)C(=O)N[C@@H](CCC(N)=O)C(=O)N[C@@H](CCC(N)=O)C(=O)N[C@@H](CCC(=O)O)C(=O)N[C@@H](Cc1ccccc1)C(=O)N[C@H](C(=O)N[C@@H](CCC(=O)O)C(=O)N[C@@H](Cc1c[nH]c2ccccc12)C(=O)N[C@@H](CC(C)C)C(=O)N[C@@H](CC(C)C)C(=O)N[C@@H](C)C(=O)N[C@@H](CCC(N)=O)C(=O)N[C@@H](CCCCN)C(=O)N1CCC[C@H]1C(=O)N[C@@H](CO)C(=O)N[C@@H](CO)C(=O)NCC(=O)N[C@@H](C)C(=O)N1CCC[C@H]1C(=O)N1CCC[C@H]1C(=O)N1CCC[C@H]1C(=O)N[C@@H](CO)C(=O)O)C(C)C` [AT720] (H-EGTFISEYSI[Aib]LEKIK([Aib-C16 diacid])QQEFVEWLLAQKPSSGAPPPS-OH; N-terminus assumed), the Kb on human GIP receptor (setting [3]) came out at 0.29 nM. Further, the “Avr lag time (h)” value is on record as “fnd (Fnd = fibrils not detected within experiment time (96 hours) with agitation.)” in series [1] (7.5 mg/ml, Na, MilliQ (8)) and “fnd (Fnd = fibrils not detected within experiment time (96 hours) with agitation.)” in series [1] (15 mg/ml, Na, MilliQ (8)). Besides, the Visual appearance entry is on record as “Clear” in series [2] (7.5 mg/ml, Na, MilliQ (8)) and “Clear” in series [2] (15 mg/ml, Na, MilliQ (8)).

As for `CC[C@H](C)[C@H](NC(=O)[C@H](CCCCN)NC(=O)[C@H](CCC(=O)O)NC(=O)[C@H](CC(C)C)NC(=O)C(C)(C)NC(=O)[C@@H](NC(=O)[C@H](CO)NC(=O)[C@H](Cc1ccc(O)cc1)NC(=O)[C@H](CCC(=O)O)NC(=O)[C@H](CO)NC(=O)[C@@H](NC(=O)[C@H](Cc1ccccc1)NC(=O)[C@@H](NC(=O)CNC(=O)[C@@H](N)CCC(=O)O)[C@@H](C)O)[C@@H](C)CC)[C@@H](C)CC)C(=O)N[C@@H](CCCCNC(=O)CC[C@H](NC(=O)CCCCCCCCCCCCCCC(=O)O)C(=O)O)C(=O)N[C@@H](CCC(N)=O)C(=O)N[C@@H](CCC(N)=O)C(=O)N[C@@H](CCC(=O)O)C(=O)N[C@@H](Cc1ccccc1)C(=O)N[C@H](C(=O)N[C@@H](CCC(=O)O)C(=O)N[C@@H](Cc1c[nH]c2ccccc12)C(=O)N[C@@H](CC(C)C)C(=O)N[C@@H](CC(C)C)C(=O)N[C@@H](C)C(=O)N[C@@H](CCC(N)=O)C(=O)N[C@@H](CCCCN)C(=O)N1CCC[C@H]1C(=O)N[C@@H](CO)C(=O)N[C@@H](CO)C(=O)NCC(=O)N[C@@H](C)C(=O)N1CCC[C@H]1C(=O)N1CCC[C@H]1C(=O)N1CCC[C@H]1C(=O)N[C@@H](CO)C(=O)O)C(C)C` [AT721] (H-EGTFISEYSI[Aib]LEKIK([γGlu-C16 diacid])QQEFVEWLLAQKPSSGAPPPS-OH; N-terminus assumed), the Kb at human GIP receptor (setting [3]) was found to be 0.31 nM. Also, the “Avr lag time (h)” value in series [1] (7.5 mg/ml, Na, MilliQ (8)) was “fnd (Fnd = fibrils not detected within experiment time (96 hours) with agitation.)”; in series [1] (15 mg/ml, Na, MilliQ (8)), “fnd (Fnd = fibrils not detected within experiment time (96 hours) with agitation.)”. Besides, the Visual appearance result in series [2] (7.5 mg/ml, Na, MilliQ (8)) was “Clear”; in series [2] (15 mg/ml, Na, MilliQ (8)), “Clear”.

Regarding `CC[C@H](C)[C@H](NC(=O)[C@H](CCCCN)NC(=O)[C@H](CCC(=O)O)NC(=O)[C@H](CC(C)C)NC(=O)C(C)(C)NC(=O)[C@@H](NC(=O)[C@H](CO)NC(=O)[C@H](Cc1ccc(O)cc1)NC(=O)[C@H](CCC(=O)O)NC(=O)[C@H](CO)NC(=O)[C@@H](NC(=O)[C@H](Cc1ccccc1)NC(=O)[C@@H](NC(=O)CNC(=O)CCCC(=O)O)[C@@H](C)O)[C@@H](C)CC)[C@@H](C)CC)C(=O)N[C@@H](CCCCNC(=O)COCCOCCNC(=O)COCCOCCNC(=O)CC[C@H](NC(=O)CCCCCCCCCCCCCCCCC(=O)O)C(=O)O)C(=O)N[C@@H](CCC(N)=O)C(=O)N[C@@H](CCC(N)=O)C(=O)N[C@@H](CCC(=O)O)C(=O)N[C@@H](Cc1ccccc1)C(=O)N[C@H](C(=O)N[C@@H](CCC(=O)O)C(=O)N[C@@H](Cc1c[nH]c2ccccc12)C(=O)N[C@@H](CC(C)C)C(=O)N[C@@H](CC(C)C)C(=O)N[C@@H](C)C(=O)N[C@@H](CCC(N)=O)C(=O)N[C@@H](CCCCN)C(=O)N1CCC[C@H]1C(=O)N[C@@H](CO)C(=O)N[C@@H](CO)C(=O)NCC(=O)N[C@@H](C)C(=O)N1CCC[C@H]1C(=O)N1CCC[C@H]1C(=O)N1CCC[C@H]1C(=O)N[C@@H](CO)C(=O)O)C(C)C` [AT705] (Glutaryl-GTFISEYSI[Aib]LEKIK([AEEA-AEEA-γGlu-C18 diacid])QQEFVEWLLAQKPSSGAPPPS-OH), at human GIP receptor (setting [3]), the Kb was determined as 0.23 nM. The “Avr lag time (h)” value in series [1] (1 mg/ml, TFA, Phosphate (7.4)) is given as “fnd (Fnd = fibrils not detected within experiment time (96 hours) with agitation.)”. The Visual appearance result in series [2] (1 mg/ml, TFA, Phosphate (7.4)) is on record as “Clear”.

With `CC[C@H](C)[C@H](NC(=O)[C@H](CCCCN)NC(=O)[C@H](CC(=O)O)NC(=O)[C@H](CCSC)NC(=O)[C@H](C)NC(=O)[C@H](CCCCNC(=O)CCCCCCCCCCCCCCC(=O)O)NC(=O)[C@H](CO)NC(=O)[C@H](Cc1ccc(O)cc1)NC(=O)[C@H](CC(=O)O)NC(=O)[C@H](CO)NC(=O)[C@@H](NC(=O)[C@H](Cc1ccccc1)NC(=O)[C@@H](NC(=O)CNC(=O)[C@@H](N)CCC(=O)O)[C@@H](C)O)[C@@H](C)CC)C(=O)N[C@@H](Cc1c[nH]cn1)C(=O)N[C@@H](CCC(N)=O)C(=O)N[C@@H](CCC(N)=O)C(=O)N[C@@H](CC(=O)O)C(=O)N[C@@H](Cc1ccccc1)C(=O)N[C@H](C(=O)N[C@@H](CCC(=O)O)C(=O)N[C@@H](Cc1c[nH]c2ccccc12)C(=O)N[C@@H](CC(C)C)C(=O)N[C@@H](CC(C)C)C(=O)N[C@@H](C)C(=O)N[C@@H](CCC(N)=O)C(=O)N[C@@H](CCCCN)C(=O)N1CCC[C@H]1C(=O)N[C@@H](CO)C(=O)N[C@@H](CO)C(=O)NCC(=O)N[C@@H](C)C(=O)N1CCC[C@H]1C(=O)N1CCC[C@H]1C(=O)N1CCC[C@H]1C(=O)N[C@@H](CO)C(=O)O)C(C)C` [AT739] (H-EGTFISDYSK(C16 diacid)AMDKIHQQDFVEWLLAQKPSSGAPPPS-OH; N-terminus assumed), the Kb at human GIP receptor was found to be 11 nM. In addition, the “Avr lag time (h)” value in series [1] (1 mg/ml, TFA, Phosphate (7.4)) is “fnd (Fnd = fibrils not detected within experiment time (96 hours) with agitation.)”. Also, in series [2] (1 mg/ml, TFA, Phosphate (7.4)), the Visual appearance entry is on record as “Clear”.
